According to patent EP1433789A1, “Pyrrolopyrazines and their use as selective apoptosis inducers” (Aponetics AG, priority 2002, dated 2004):

Key:
A20 [1] = assay: Hoechst 33342 nuclear staining (Table 3); type: cell-based, mouse; parameters: key: 0 relating to no activity; 1 relating to weak activity comprising less than 50% of the cells; score 2 relating to strong activity comprising more than 50% of the cells
Procedure: This assay is performed in 96 well tissue culture plates. Appropriate number of cells (adherent cells: 3 - 5*10^3, suspension cells: 8 - 10*10^3) are being seeded out in 80 µl complete medium. Adherent cells are incubated for 24 h for proper spreading out before addition of test compounds while suspension cells are immediately treated with test compounds after seeding out. The test compounds are added in 20 µl complete medium containing max 5% DMSO. The final compound concentrations in the assays are 10 µM, 3 µM,1 µM and 0.3 µM, respectively. After 24 h or 48 h incubation at culture conditions, 10 µl medium containing Hoechst 33342 dye (Sigma B-2261) at 2-5 µg/ml are added to each well. The assay plates are then further incubated for 30 minutes and subsequently analyzed with a standard inverted fluorescence microscope. The readout allows the determination of the fraction of apoptotic nuclei as well as other morphological criteria specific for apoptosis as a function of the treatment. The following scores are used: 0 relating to no activity, 1 relating to weak activity comprising less than 50% of the cells and score 2 relating to strong activity comprising more than 50% of the cells.

HeLa [2] = assay: Hoechst 33342 nuclear staining (Table 3); type: cell-based, human; parameters: key: 0 relating to no activity; 1 relating to weak activity comprising less than 50% of the cells; score 2 relating to strong activity comprising more than 50% of the cells
In short: (§1)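 Adherent cells (3-5×10^3, pre-spread 24 h) or suspension cells (8-10×10^3) treated with compounds at 10, 3, 1 and 0.3 µM for 24 or 48 h, then Hoechst 33342 stained for 30 min. Apoptotic nuclear morphology scored by fluorescence microscopy: 0 none, 1 weak (<50% cells), 2 strong (>50% cells).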

Jurkat [3] = assay: Hoechst 33342 nuclear staining (Table 3); type: cell-based, human; parameters: key: 0 relating to no activity; 1 relating to weak activity comprising less than 50% of the cells; score 2 relating to strong activity comprising more than 50% of the cells
In short: as §1

K562 = assay: Hoechst 33342 nuclear staining (Table 3); type: cell-based, human; parameters: key: 0 relating to no activity; 1 relating to weak activity comprising less than 50% of the cells; score 2 relating to strong activity comprising more than 50% of the cells
In short: as §1

KB = assay: Hoechst 33342 nuclear staining (Table 3); type: cell-based, human; parameters: key: 0 relating to no activity; 1 relating to weak activity comprising less than 50% of the cells; score 2 relating to strong activity comprising more than 50% of the cells
In short: as §1

A20 [4] = assay: AnnexinV/7-AAD staining; type: cell-based, mouse; conditions: A20, 10 µM, 24 h treatment
In short: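 Cells treated with compound at 10 µM final for 24 h, then stained with AnnexinV-GST/anti-GST Alexa 488 and 7-AAD and analysed by flow cytometry. Percent positive cells scored as 0 (<10%), 1 (10–50%) or 2 (>50%).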

HeLa [5] = assay: BrdU incorporation (proliferation); type: cell-based, human; parameters: key: 0 for no activity; 1 for a moderate inhibition; 2 for strong inhibition of proliferation; conditions: 48 h
Procedure: (§2) Adherent cells are seeded out at 2 - 4*10^4 cells/well/ml in 24 well tissue culture plates 24 h prior to treatment. Suspension cells are seeded out at 2*10^5 cells/ml/well in 24 well plates. Compounds are added leading to final concentrations of 3 µM and 10 µM, respectively. Subsequently, BrdU (Molecular Probes #B-23151) at 10 µM final concentration is added and the plates are incubated for 48 h. After the incubation cells are processed according to standard procedures. The detection of the incorporated BrdU is done with the anti-bromodeoxyuridine Mab PRB-1, Alexa Fluor 660 conjugate (Molecular Probes #A-21306). The analysis is performed on a FACSCalibur™ by monitoring the fluorescence activity on FL3. The readout reflects DNA synthesis which is a hallmark for proliferation. The scores are defined the following: 0 for no activity, 1 for a moderate inhibition and 2 for strong inhibition of proliferation. Table 7 indicates inhibitory activities of several tested compounds on proliferation.

Jurkat [6] = assay: BrdU incorporation (proliferation); type: cell-based, human; parameters: key: 0 for no activity; 1 for a moderate inhibition; 2 for strong inhibition of proliferation; conditions: 48 h
Procedure: as §2

COc1cc2c(cc1OC)-c1c(Br)c3nc4ccccc4nc3n1C(C)C2 (stereo not drawn) [compound 10]
Hoechst 33342 nuclear staining (A20 [1]; A20, 24h, conc 0.3 (µM)): 0
Hoechst 33342 nuclear staining (A20 [1]; A20, 24h, conc 1 (µM)): 0
Hoechst 33342 nuclear staining (A20 [1]; A20, 24h, conc 3 (µM)): 0
Hoechst 33342 nuclear staining (A20 [1]; A20, 24h, conc 10 (µM)): 2 (score 2 relating to strong activity comprising more than 50% of the cells)
Hoechst 33342 nuclear staining (A20 [1]; A20, 48h, conc 0.3 (µM)): 0
Hoechst 33342 nuclear staining (A20 [1]; A20, 48h, conc 1 (µM)): 0
Hoechst 33342 nuclear staining (A20 [1]; A20, 48h, conc 3 (µM)): 2 (score 2 relating to strong activity comprising more than 50% of the cells)
Hoechst 33342 nuclear staining (HeLa [2]; 24h, conc 0.3 (µM)): 0
Hoechst 33342 nuclear staining (HeLa [2]; 24h, conc 1 (µM)): 0
Hoechst 33342 nuclear staining (HeLa [2]; 24h, conc 3 (µM)): 0
Hoechst 33342 nuclear staining (HeLa [2]; 24h, conc 10 (µM)): 2 (score 2 relating to strong activity comprising more than 50% of the cells)
Hoechst 33342 nuclear staining (HeLa [2]; 48h, conc 0.3 (µM)): 0
Hoechst 33342 nuclear staining (HeLa [2]; 48h, conc 1 (µM)): 0
Hoechst 33342 nuclear staining (HeLa [2]; 48h, conc 3 (µM)): 2 (score 2 relating to strong activity comprising more than 50% of the cells)
Hoechst 33342 nuclear staining (HeLa [2]; 48h, conc 10 (µM)): 2 (score 2 relating to strong activity comprising more than 50% of the cells)
Hoechst 33342 nuclear staining (Jurkat [3]; 24h, conc 0.3 (µM)): 1 (1 relating to weak activity comprising less than 50% of the cells)
Hoechst 33342 nuclear staining (Jurkat [3]; 24h, conc 1 (µM)): 2 (score 2 relating to strong activity comprising more than 50% of the cells)
Hoechst 33342 nuclear staining (Jurkat [3]; 24h, conc 3 (µM)): 2 (score 2 relating to strong activity comprising more than 50% of the cells)
Hoechst 33342 nuclear staining (Jurkat [3]; 24h, conc 10 (µM)): 2 (score 2 relating to strong activity comprising more than 50% of the cells)
Hoechst 33342 nuclear staining (Jurkat [3]; 48h, conc 0.3 (µM)): 1 (1 relating to weak activity comprising less than 50% of the cells)
Hoechst 33342 nuclear staining (Jurkat [3]; 48h, conc 1 (µM)): 2 (score 2 relating to strong activity comprising more than 50% of the cells)
Hoechst 33342 nuclear staining (Jurkat [3]; 48h, conc 3 (µM)): 2 (score 2 relating to strong activity comprising more than 50% of the cells)
Hoechst 33342 nuclear staining (Jurkat [3]; 48h, conc 10 (µM)): 2 (score 2 relating to strong activity comprising more than 50% of the cells)
Hoechst 33342 nuclear staining (K562; K562, 24h, conc 0.3 (µM)): 0
Hoechst 33342 nuclear staining (K562; K562, 24h, conc 1 (µM)): 0
Hoechst 33342 nuclear staining (K562; K562, 24h, conc 3 (µM)): 2 (score 2 relating to strong activity comprising more than 50% of the cells)
Hoechst 33342 nuclear staining (K562; K562, 24h, conc 10 (µM)): 2 (score 2 relating to strong activity comprising more than 50% of the cells)
Hoechst 33342 nuclear staining (K562; K562, 48h, conc 0.3 (µM)): 0
Hoechst 33342 nuclear staining (K562; K562, 48h, conc 1 (µM)): 2 (score 2 relating to strong activity comprising more than 50% of the cells)
Hoechst 33342 nuclear staining (K562; K562, 48h, conc 3 (µM)): 2 (score 2 relating to strong activity comprising more than 50% of the cells)
Hoechst 33342 nuclear staining (K562; K562, 48h, conc 10 (µM)): 2 (score 2 relating to strong activity comprising more than 50% of the cells)
Hoechst 33342 nuclear staining (KB; 24h, conc 0.3 (µM)): 0
Hoechst 33342 nuclear staining (KB; 24h, conc 1 (µM)): 0
Hoechst 33342 nuclear staining (KB; 24h, conc 3 (µM)): 2 (score 2 relating to strong activity comprising more than 50% of the cells)
Hoechst 33342 nuclear staining (KB; 24h, conc 10 (µM)): 2 (score 2 relating to strong activity comprising more than 50% of the cells)
Hoechst 33342 nuclear staining (KB; 48h, conc 0.3 (µM)): 0
Hoechst 33342 nuclear staining (KB; 48h, conc 1 (µM)): 2 (score 2 relating to strong activity comprising more than 50% of the cells)
Hoechst 33342 nuclear staining (KB; 48h, conc 3 (µM)): 2 (score 2 relating to strong activity comprising more than 50% of the cells)
Hoechst 33342 nuclear staining (KB; 48h, conc 10 (µM)): 2 (score 2 relating to strong activity comprising more than 50% of the cells)
percentage of positively stained cells (AnnexinV/7-AAD staining) (A20 [4]): 1 (score 1 relates to more than 10% but less than 50%)
BrdU incorporation (inhibition of proliferation) (HeLa [5]; 3uM): 0
BrdU incorporation (inhibition of proliferation) (HeLa [5]; 10uM): 0
BrdU incorporation (inhibition of proliferation) (Jurkat [6]; 3uM): 2
BrdU incorporation (inhibition of proliferation) (Jurkat [6]; 10uM): 1

CC1Cc2ccccc2-c2c(Cl)c3nc4ccccc4nc3n21 (stereo not drawn) [compound 11]
Hoechst 33342 nuclear staining (A20 [1]; A20, 24h, conc 1 (µM)): 0
Hoechst 33342 nuclear staining (A20 [1]; A20, 24h, conc 3 (µM)): 0
Hoechst 33342 nuclear staining (A20 [1]; A20, 24h, conc 10 (µM)): 0
Hoechst 33342 nuclear staining (A20 [1]; A20, 48h, conc 0.3 (µM)): 0
Hoechst 33342 nuclear staining (A20 [1]; A20, 48h, conc 1 (µM)): 0
Hoechst 33342 nuclear staining (A20 [1]; A20, 48h, conc 3 (µM)): 0
Hoechst 33342 nuclear staining (A20 [1]; A20, 48h, conc 10 (µM)): 2 (score 2 relating to strong activity comprising more than 50% of the cells)
Hoechst 33342 nuclear staining (HeLa [2]; 24h, conc 0.3 (µM)): 0
Hoechst 33342 nuclear staining (HeLa [2]; 24h, conc 1 (µM)): 0
Hoechst 33342 nuclear staining (HeLa [2]; 24h, conc 3 (µM)): 0
Hoechst 33342 nuclear staining (HeLa [2]; 24h, conc 10 (µM)): 0
Hoechst 33342 nuclear staining (HeLa [2]; 48h, conc 0.3 (µM)): 0
Hoechst 33342 nuclear staining (HeLa [2]; 48h, conc 1 (µM)): 0
Hoechst 33342 nuclear staining (HeLa [2]; 48h, conc 3 (µM)): 0
Hoechst 33342 nuclear staining (HeLa [2]; 48h, conc 10 (µM)): 2 (score 2 relating to strong activity comprising more than 50% of the cells)
Hoechst 33342 nuclear staining (Jurkat [3]; 24h, conc 0.3 (µM)): 0
Hoechst 33342 nuclear staining (Jurkat [3]; 24h, conc 1 (µM)): 0
Hoechst 33342 nuclear staining (Jurkat [3]; 24h, conc 3 (µM)): 2 (score 2 relating to strong activity comprising more than 50% of the cells)
Hoechst 33342 nuclear staining (Jurkat [3]; 24h, conc 10 (µM)): 2 (score 2 relating to strong activity comprising more than 50% of the cells)
Hoechst 33342 nuclear staining (Jurkat [3]; 48h, conc 0.3 (µM)): 1 (1 relating to weak activity comprising less than 50% of the cells)
Hoechst 33342 nuclear staining (Jurkat [3]; 48h, conc 1 (µM)): 2 (score 2 relating to strong activity comprising more than 50% of the cells)
Hoechst 33342 nuclear staining (Jurkat [3]; 48h, conc 3 (µM)): 2 (score 2 relating to strong activity comprising more than 50% of the cells)
Hoechst 33342 nuclear staining (Jurkat [3]; 48h, conc 10 (µM)): 2 (score 2 relating to strong activity comprising more than 50% of the cells)
Hoechst 33342 nuclear staining (K562; K562, 24h, conc 0.3 (µM)): 0
Hoechst 33342 nuclear staining (K562; K562, 24h, conc 1 (µM)): 0
Hoechst 33342 nuclear staining (K562; K562, 24h, conc 3 (µM)): 0
Hoechst 33342 nuclear staining (K562; K562, 24h, conc 10 (µM)): 2 (score 2 relating to strong activity comprising more than 50% of the cells)
Hoechst 33342 nuclear staining (K562; K562, 48h, conc 0.3 (µM)): 0
Hoechst 33342 nuclear staining (K562; K562, 48h, conc 1 (µM)): 0
Hoechst 33342 nuclear staining (K562; K562, 48h, conc 3 (µM)): 1 (1 relating to weak activity comprising less than 50% of the cells)
Hoechst 33342 nuclear staining (K562; K562, 48h, conc 10 (µM)): 2 (score 2 relating to strong activity comprising more than 50% of the cells)
Hoechst 33342 nuclear staining (KB; 24h, conc 0.3 (µM)): 0
Hoechst 33342 nuclear staining (KB; 24h, conc 1 (µM)): 0
Hoechst 33342 nuclear staining (KB; 24h, conc 3 (µM)): 0
Hoechst 33342 nuclear staining (KB; 24h, conc 10 (µM)): 0
Hoechst 33342 nuclear staining (KB; 48h, conc 0.3 (µM)): 0
Hoechst 33342 nuclear staining (KB; 48h, conc 1 (µM)): 0
Hoechst 33342 nuclear staining (KB; 48h, conc 3 (µM)): 1 (1 relating to weak activity comprising less than 50% of the cells)
Hoechst 33342 nuclear staining (KB; 48h, conc 10 (µM)): 2 (score 2 relating to strong activity comprising more than 50% of the cells)
percentage of positively stained cells (AnnexinV/7-AAD staining) (A20 [4]): 1 (score 1 relates to more than 10% but less than 50%)
BrdU incorporation (inhibition of proliferation) (HeLa [5]; 3uM): 1
BrdU incorporation (inhibition of proliferation) (Jurkat [6]; 3uM): 0
BrdU incorporation (inhibition of proliferation) (Jurkat [6]; 10uM): 2
